Measurements published in EP3300715A1, “USE OF DIALKYLCARBONATES OF BRANCHED ALCOHOLS AS DISPERSION AGET” (BASF SE, priority 2016, dated 2018).

Assay: Pigment dispersion test: medium added dropwise to 10 g pigment until a paste forms; maximum % pigment in the medium
Type: physicochemical
Conditions: medium added dropwise to 10 g pigment (Eisenoxid, Titanoxid) until paste, no excess medium; compared with other media; shown in figure
From the text: Es hat sich überraschend gezeigt, dass die erfindungsgemäß verwendeten Dialkylcarbonate gegenüber anderen Medien hervorragende Dispersionen mit Feststoffen bilden.
Das Experiment wurde wie folgt durchgeführt. Das Medium wurde tropfenweise zu 10 g Pigment (grau = Eisenoxid, dunkelgrau = Titanoxid), bis sich eine Paste gebildet hatte (kein Medium im Überschuss). Die folgende Rechnung entspricht der maximalen Menge Pigment in prozent, die in das jeweilige Medium gegeben werden kann: % Pigment = m(Pigment)/m(Pigment) + m(Medium) × 100 [formula]

CCCCCC(CCC)COC(=O)OCC(CCC)CCCCC (stereo not shown) [Di-(2-Propyl-1-heptyl)carbonat]
Pigmentkonzentrationen (% Pigment, maximale Menge Pigment im Medium): höchsten Pigmentkonzentrationen
